{"source": "paper PMC9963009", "about": "“Investigation of the Protective Effect for GcMAF by a Glycosidase Inhibitor and the Glycan Structure of Gc Protein” (Molecules, 2023)", "biological_target": "T1, α-N-acetylgalactosaminidase (α-GalNAc-ase) from chicken liver (Gallus gallus, UniProt Q90744)", "T1 construct": "gene NAGA; commercial enzyme from chicken liver", "T1 sequence (Q90744 1-405)": "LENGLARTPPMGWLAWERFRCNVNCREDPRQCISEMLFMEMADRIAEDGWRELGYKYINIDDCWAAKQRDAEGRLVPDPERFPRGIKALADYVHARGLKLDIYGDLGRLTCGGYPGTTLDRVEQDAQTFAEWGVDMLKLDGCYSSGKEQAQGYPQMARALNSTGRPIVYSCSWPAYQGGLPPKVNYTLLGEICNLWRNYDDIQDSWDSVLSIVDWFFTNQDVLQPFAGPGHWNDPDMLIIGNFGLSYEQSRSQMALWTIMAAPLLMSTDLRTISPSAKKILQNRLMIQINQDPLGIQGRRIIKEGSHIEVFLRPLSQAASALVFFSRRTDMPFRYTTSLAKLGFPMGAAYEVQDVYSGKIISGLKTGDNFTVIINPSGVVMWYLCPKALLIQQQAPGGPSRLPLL", "assay": "LC-MS of Gc protein glycopeptides after treatment with a mix of three glycosidases with/without […] inhibitor", "format": "biochemical"}
{"compound": "OCC1NC(CNCCc2ccccc2)C(O)C1O", "note": "(stereo not shown) [iminocyclitol, 2-Hydroxymethyl-5-(phenethylaminomethyl)-pyrrolidine-3,4-diol]", "values": [{"measurement": "LC-MS of Gc protein glycopeptides after treatment with a mix of three glycosidas", "result": "the inhibitory activity of iminocyclitol against α-GalNAc-ase was also observed (Figure 4c)"}]}
